In patent publication US20240270724A1, “GALECTIN-3 INHIBITING C-GLYCOSIDES” (GLYCOMIMETICS, INC., priority 2021, published 2024):

Legend:
[1] = biological target: T1, galectin-3 (Homo sapiens, UniProt P17931); test: Galectin-3 activity ELISA assay: inhibition of galectin-3 binding to immobilized Galβ1-3GlcNAc polymer; conditions: inhibition of galectin-3 binding to Galβ1-3GlcNAc polymer, average (± standard deviation) where assayed more than once
T1 construct: purchased IBL IBATGP0414
Excerpt: An inhibition assay may be used to screen for antagonists of galectin-3. For example, an assay may be performed to characterize the capability of a compound described herein to inhibit interaction of galectin-3 with a Galβ1-3GlcNAc carbohydrate structure. The inhibition assay may be a competitive binding assay, which allows the determination of IC50 values. By way of example, a Galβ1-3GlcNAc polymer may be immobilized onto a matrix; a composition may be added to reduce nonspecific binding; the immobilized Galβ1-3GlcNAc polymer may be contacted with the candidate compound in the presence of galectin-3 group under conditions and for a time sufficient to permit galectin-3 to bind to the immobilized Galβ1-3GlcNAc polymer; the immobilized Galβ1-3GlcNAc polymer may be washed; and the amount of galectin-3 bound to the immobilized Galβ1-3GlcNAc polymer may be detected. Variations of such steps can be readily and routinely accomplished by a person of ordinary skill in the art.
Galectin-3 antagonists were evaluated for their ability to inhibit binding of galectin-3 to a Galβ1-3GlcNAc carbohydrate structure. The detailed protocol was as follows. A 1 μg/mL suspension of a Galβ1-3GlcNAcβ1-3Galβ1-4GlcNAcβ-PAA-biotin polymer (Glycotech, catalog number 01-096) was prepared. A 100 μL aliquot of the polymer was added to the wells of a 96-well streptavidin-coated plate (R&D Systems, catalog number CP004). A 100 μL aliquot of 1× Tris Buffered Saline (TBS, Sigma, catalog number T5912-10X) was added to control wells. The polymer was allowed to bind to the streptavidin-coated wells for 1.5 hours at room temperature. The contents of the wells were discarded, and 200 μL of 1×TBS containing 1% bovine serum albumin (BSA) was added to each well as a blocking reagent and the plate was kept at room temperature for 30 minutes. The wells were washed three times with 1×TBS containing 0.1% BSA. A serial dilution of test compounds was prepared in a separate V-bottom plate (Corning, catalog number 3897). A 75 μL aliquot of the highest concentration of the compound to be tested was added to the first well in a column of the V-bottom plate, then 15 μL were serially transferred into 60 μL 1×TBS through the remaining wells in the column to generate a 1 to 5 serial dilution. A 60 μL aliquot of 2 μg/mL galectin-3 (IBL, catalog number IBATGP0414) was added to each well in the V-bottom plate. A 100 μL aliquot of the galectin-3 test compound mixture was transferred from the V-bottom plate into the assay plate containing the Galβ1-3GlcNAc polymer. Four sets of control wells in the assay plate were prepared in duplicate containing 1) both Galβ1-3GlcNAc polymer and galectin-3, 2) neither the polymer nor galectin-3, 3) galectin-3 only, no polymer, or 4) polymer only, no galectin-3. The plate was gently rocked for 1.5 hours at room temperature. The wells were washed four times with TBS/0.1% BSA. A 100 μL aliquot of anti-galectin-3 antibody conjugated to horse radish peroxidase (R&D Systems, from DGAL30 kit) was added to each well, and the plate was kept at room temperature for 1 hour. The wells were washed four times with TBS/0.1% BSA. A 100 μL aliquot of TMB substrate solution was added to each well. The TMB substrate solution was prepared by making a 1:1 mixture of TMB Peroxidase Substrate (KPL, catalog number 5120-0048) and Peroxidase Substrate Solution B (KPL, catalog number 5120-0037). The plate was kept at room temperature for 10 to 20 minutes. The color development was stopped by adding 100 uL 10% phosphoric acid (RICCA Chemical Co., catalog number 5850-16). The absorbance at 450 nm (A450) was measured using a FlexStation 3 plate reader (Molecular Devices). Plots of A450 versus test compound concentration and IC50 determinations were made using GraphPad Prism 6. The number of assays run (n) for each compound is recorded in the following table.

[2] = biological target: T2, carbohydrate recognition domain of human galectin-3 (Galectin-3-CRD) (Homo sapiens, UniProt P17931); test: Galectin-3 activity microscale thermophoresis assay; type: binding; conditions: label-free MST, 20 nM galectin-3-CRD; average of all assays (± standard deviation), each assay in triplicate
T2 construct: The carbohydrate recognition domain of human galectin-3 (Servesto Galectin-3-CRD) was diluted; purchased Servesto
T2 sequence (P17931 118-248 limits assumed): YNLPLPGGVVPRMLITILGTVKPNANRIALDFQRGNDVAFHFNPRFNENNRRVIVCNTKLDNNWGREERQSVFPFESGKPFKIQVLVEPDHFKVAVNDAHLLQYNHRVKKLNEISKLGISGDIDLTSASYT
Method: The carbohydrate recognition domain of human galectin-3 (Servesto Galectin-3-CRD) was diluted with PBS+0.1% F127 to 40 nM. Separately, a 40 uM stock of Compound 45 in DMSO was diluted down to 4 uM in PBS+0.1% F127 and serially diluted in sixteen steps using a dilution factor of 1 to 2 in 10% DMSO+PBS+0.1% F127. To each sample in the serial dilution of Compound 45, 10 ul of 40 nM Galectin-3-CRD was added, yielding final concentrations of 20 nM galectin-3-CRD and 5% DMSO+PBS+0.1% F127. NT.LabelFree Zero background Standard Treated Capillaries were filled with the prepared solutions then loaded into the Monolith NT Label-Free MST instrument. The reaction was measured with 100% excitation power of LED and medium (40%) MST power. Binding curves and Kd values were generated using MO affinity analysis. Each assay was run in triplicate. Some compounds were subjected to more than one assay run in triplicate.

T1 sequence (P17931 whole entry): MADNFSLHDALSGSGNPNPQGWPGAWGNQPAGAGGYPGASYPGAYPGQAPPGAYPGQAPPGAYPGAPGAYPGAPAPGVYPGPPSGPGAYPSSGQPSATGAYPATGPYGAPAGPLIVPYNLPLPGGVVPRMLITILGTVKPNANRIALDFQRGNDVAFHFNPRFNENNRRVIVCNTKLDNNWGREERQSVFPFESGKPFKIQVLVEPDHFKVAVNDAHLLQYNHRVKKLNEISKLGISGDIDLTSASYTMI

IC50 [1] [nM] | Kd [2] [nM] | SMILES
448 | 23 | CNC(=O)[C@@H](OCc1ccc(Br)cc1)[C@@H]1OC(CO)[C@H](O)C(n2cc(-c3cc(F)c(F)c(F)c3)nn2)C1OC (stereo partly drawn) [Compound 19]
265 | 36 | COCCCNC(=O)[C@@H](OCc1ccc(Br)cc1)[C@@H]1OC(CO)[C@H](O)C(n2cc(-c3cc(F)c(F)c(F)c3)nn2)C1OC (stereo partly drawn) [Compound 20]
474 | 33 | COCCCNC(=O)[C@@H](OCc1ccc(Br)cc1)[C@@H]1OC(CO)[C@H](O)C(n2cc(-c3cc(F)cc(F)c3)nn2)C1OC (stereo partly drawn) [Compound 21]
1490 | 83 | COCCCN(C)C(=O)[C@@H](OCc1ccc(Br)cc1)[C@@H]1OC(CO)[C@H](O)C(n2cc(-c3cc(F)cc(F)c3)nn2)C1OC (stereo partly drawn) [Compound 22]
271 | 1.7 | COC1C(n2cc(-c3cc(F)c(F)c(F)c3)nn2)[C@@H](O)C(CO)O[C@H]1[C@H](OCc1ccc(Br)cc1)C(=O)NC(C)C (stereo partly drawn) [Compound 23]
173 | 26 | CC(C)OC(=O)[C@@H](OCc1ccc(Br)cc1)[C@@H]1OC(CO)[C@H](O)C(n2cc(-c3cc(F)c(F)c(F)c3)nn2)C1O (stereo partly drawn) [Compound 27]
391 | 21 | COCCCNC(=O)[C@@H](OCc1ccc(Br)cc1)[C@@H]1OC(CO)[C@H](O)C(n2cc(-c3cc(F)cc(F)c3)nn2)C1O (stereo partly drawn) [Compound 35]
204 | 14 | COCCCNC(=O)[C@@H](OCc1ccc(Br)cc1)[C@@H]1OC(CO)[C@H](O)C(n2cc(-c3cc(F)c(F)c(F)c3)nn2)C1O (stereo partly drawn) [Compound 36]
103 | 12 | COC1C(n2cc(-c3cc(F)c(F)c(F)c3)nn2)[C@@H](O)C(CO)O[C@H]1[C@H](OCc1ccc(Br)cc1)C(=O)OC(C)C (stereo partly drawn) [Compound 43]
291 | 12 | CC(C)NC(=O)[C@@H](OCc1ccc(Br)cc1)[C@@H]1OC(CO)[C@H](O)C(n2cc(-c3cc(F)c(F)c(F)c3)nn2)C1O (stereo partly drawn) [Compound 44]
171 | 8.9 | [2H]C([2H])([2H])OC1C(n2cc(-c3cc(F)c(F)c(F)c3)nn2)[C@@H](O)C(CO)O[C@H]1[C@H](OCc1ccc(Br)cc1)C(=O)NC(C)C (stereo partly drawn) [Compound 45]
228 | 2.9 | [2H]C([2H])([2H])OC1C(n2cc(-c3cc(F)c(F)c(F)c3)nn2)[C@@H](O)C(CO)O[C@H]1[C@H](OCc1ccc(Br)cc1)C(=O)NC([2H])(C([2H])([2H])[2H])C([2H])([2H])[2H] (stereo partly drawn) [Compound 46]
408 | 11 | [2H]C([2H])([2H])OC1C(n2cc(-c3cc(F)c(F)c(F)c3)nn2)[C@@H](O)C(CO)O[C@H]1[C@H](OCc1ccc(Br)cc1)C(=O)NC1CC1 (stereo partly drawn) [Compound 47]
972 | 46 | [2H]C([2H])([2H])OC1C(n2cc(-c3cc(F)c(F)c(F)c3)nn2)[C@@H](O)C(CO)O[C@H]1[C@H](OCc1ccc(Br)cc1)C(=O)NC(C)(C)C (stereo partly drawn) [Compound 48]
116 | 18 | COC1C(n2cc(-c3cc(F)c(F)c(F)c3)nn2)[C@@H](O)C(CO)O[C@H]1[C@H](OCc1ccc(Br)cc1)C(=O)NC1CC1 (stereo partly drawn) [Compound 49]
201 | 10 | [2H]C([2H])([2H])OC1C(n2cc(-c3cc(F)c(F)c(F)c3)nn2)[C@@H](O)C(CO)O[C@H]1[C@H](OCc1ccc(Br)cc1)C(=O)NC1(C)CC1 (stereo partly drawn) [Compound 50]
702 | 17 | [2H]C([2H])([2H])OC1C(n2cc(-c3cc(F)c(F)c(F)c3)nn2)[C@@H](O)C(CO)O[C@H]1[C@H](OCc1ccc(Br)cc1)C(=O)NC1(C(F)(F)F)CC1 (stereo partly drawn) [Compound 51]
771 | 10 | [2H]C([2H])([2H])OC1C(n2cc(-c3cc(F)c(F)c(F)c3)nn2)[C@@H](O)C(CO)O[C@H]1[C@H](OCc1ccc(Br)c(F)c1)C(=O)NC(C)C (stereo partly drawn) [Compound 61]
826 | 11 | [2H]C([2H])([2H])OC1C(n2cc(-c3cc(F)c(F)c(F)c3)nn2)[C@@H](O)C(CO)O[C@H]1[C@H](OCc1ccc(Br)cc1)C(=O)NC1CC1(F)F (stereo partly drawn) [Compound 62]
51 | 22 | [2H]C([2H])([2H])OC1C(n2cc(-c3cc(F)c(F)c(F)c3)nn2)[C@@H](O)C(CO)O[C@H]1[C@H](OCc1ccc(Br)cc1)C(=O)NC1CNC1 (stereo partly drawn) [Compound 63]
236 | 18 | [2H]C([2H])([2H])OC1C(n2cc(-c3cc(F)c(F)c(F)c3)nn2)[C@@H](O)C(CO)O[C@H]1[C@H](OCc1ccc(Br)cc1)C(=O)NC1COC1 (stereo partly drawn) [Compound 64]
364 | 13 | [2H]C([2H])([2H])OC1C(n2cc(-c3cc(F)c(F)c(F)c3)nn2)[C@@H](O)C(CO)O[C@H]1[C@H](OCc1ccc(Br)cc1)C(=O)N[C@H]1C[C@H]1F (stereo partly drawn) [Compound 65]
143 | 3.6 | [2H]C([2H])([2H])OC1C(n2cc(-c3cc(F)c(F)c(F)c3)nn2)[C@@H](O)C(CO)O[C@H]1[C@H](OCc1ccc(Br)cc1)C(=O)NC1CC(F)(F)C1 (stereo partly drawn) [Compound 66]
153 | 2.2 | [2H]C([2H])([2H])OC1C(n2cc(-c3cc(F)c(F)c(F)c3)nn2)[C@@H](O)C(CO)O[C@H]1[C@H](OCc1ccc(Br)cc1)C(=O)NC1CCC1 (stereo partly drawn) [Compound 67]
709 | 87 | [2H]C([2H])([2H])OC1C(n2cc(-c3cc(F)c(F)c(F)c3)nn2)[C@@H](O)C(CO)O[C@H]1[C@H](OCc1ccc(Br)cc1)C(=O)N(C)C (stereo partly drawn) [Compound 68]
269 | 32 | CCNC(=O)[C@@H](OCc1ccc(Br)cc1)[C@@H]1OC(CO)[C@H](O)C(n2cc(-c3cc(F)c(F)c(F)c3)nn2)C1OC (stereo partly drawn) [Compound 69]
192 | 20 | COC1C(n2cc(-c3cc(F)c(F)c(F)c3)nn2)[C@@H](O)C(CO)O[C@H]1[C@H](OCc1ccc(Br)cc1)C(=O)NCCO (stereo partly drawn) [Compound 70]
